Entries after “also recorded” stand apart in the source; their conditions may differ.
Columns and labels:
B16 mouse melanoma cells [1] = assay: B16 melanoma tail-vein injection in irradiated p16-3MR mice (primary tumors and metastases, fLUC bioluminescence); format: in vivo
Method: Briefly, 10^6 B16 mouse melanoma cells, a highly aggressive cell line that is syngeneic with p16-3MR transgenic mice (C57B16 background), that express firefly luciferase (fLUC, to enable their detection by bioluminescence) were injected into the tail vein of the p16-3MR transgenic mice approximately three months after being either mock irradiated or irradiated, as described in Example 2. Irradiated mice were treated daily with GCV (25 mg/kg) or vehicle only for 7 days, and then 3 days following the last GCV dose, B16 mouse melanoma cells were injected into the mice. B16 mouse melanoma cells first colonize the lung, where they form primary tumors approximately two weeks after injection, and thereafter metastasize to distal tissues to form secondary tumors in, for example, the pancreas, liver and visceral fat. The bioluminescence markers, fLUC and rLUC are distinguishable because the enzymes use different substrates.

B16 mouse melanoma cells [2] = assay: Subcutaneous B16 melanoma in doxorubicin-treated p16-3MR mice; format: in vivo; settings: for p16INK4a and mRFP expression in skin biopsies / tumor diameters: doxorubicin 10 mg/kg with or without GCV; for tumor diameters / growth/size of subcutaneous B16 melanoma tumors: 12 days after B16 injection; for growth/size of subcutaneous B16 melanoma tumors: doxorubicin 10 mg/kg, GCV 25 mg/kg daily for 7 days starting 7 days later
Method: Briefly, p16-3MR transgenic mice were treated with vehicle (ctrl) or 10 mg/kg doxorubicin. Seven days after doxorubicin treatment, mice were treated daily with GCV (25 mg/kg) for 7 days or vehicle only. 3 days after the last GCV treatment, 4×10^5 B16 mouse melanoma cells were injected subcutaneously into the p16-3MR transgenic mice, and mice were sacrificed after 12 days for analysis.

senescent cells [3] = assay: Detection and clearance of senescent cells in irradiated p16-3MR transgenic mice (rLUC bioluminescence, SASP biomarker RNA); format: in vivo, mouse
Method: Briefly, a group of p16-3MR transgenic mice were exposed to whole body ionizing radiation (7 Gy X-ray) and a control group of p16-3MR transgenic mice were mock-irradiated. After three months, the mice were treated with GCV (25 mg/kg) or vehicle only, and then at least two weeks later bioluminescence in tissues was examined after administering the rLUC substrate.

HCA2 human fibroblasts = settings: 2.5 μM, 48 hours
Method: (§1) The initial drug screen was performed in a 96-well format using automated liquid handling with a Biomek FX (Beckman Coulter, CA). Senescent cells were plated 24 hours after X-irradiation at 7,500 cells per well in 96-well plates. Six days after plating the senescent cells, the pre-senescent cells were plated at 7,500 cells per well in 96-well plates. Twenty-four hours after pre-senescent plating, both pre-senescent and senescent cells were washed and incubated in low (0.2%) serum for 48 hours to arrest cell proliferation of the pre-senescent cells. Drugs from the Prestwick Chemical Library, which contains 1120 bio-available compounds in DMSO, were given to the cells at 2.5 μM in media containing 0.2% serum. Forty-eight hours after compound addition, the medium in each well was removed and frozen for assay by ELISA to quantitate the levels of IL-6. The cells, which remained in the wells after the medium was removed, were lysed and ATP levels were measured (ATPlite 1-step assay, Perkin Elmer, MA) to exclude compounds that lowered IL-6 through toxicity (cell death). Experimental wells in each plate were normalized to plate mean or same-plate DMSO controls for the ELISA and ATP assays, respectively.
To identify small molecules that may be potential SASP modulators, a screening strategy that entailed administering compounds to parallel 96-well plates containing human fibroblasts (strain HCA2) that were either quiescent or senescent was developed. The compounds tested comprised the Prestwick Chemical Library, a collection of approximately 1,120 Federal Drug Administration-approved drugs. The compounds were added to duplicate wells at a single concentration (2.5 μM). After 48 hours, the medium from each well was removed, and the cells were lysed. […] Cell lysates were assayed for ATP as a surrogate for cell number.

IL-6 [4] = assay: Initial drug screen (Prestwick Chemical Library), IL-6 ELISA of medium; format: cell-based, human; settings: 2.5 μM, 48 hours, HCA2 fibroblasts, 0.2% serum
Method: as §1, with “Drugs from the Prestwick Chemical Library, which contains 1120 bio-available compounds in DMSO, were given to the cells at 2.5 μM in media containing 0.2% serum.” left out
To identify small molecules that may be potential SASP modulators, a screening strategy that entailed administering compounds to parallel 96-well plates containing human fibroblasts (strain HCA2) that were either quiescent or senescent was developed. […] After 48 hours, the medium from each well was removed, and the cells were lysed. […] Cell lysates were assayed for ATP as a surrogate for cell number.

senescent cells [5] = assay: Doxorubicin-induced senescent cells in tissues of p16-3MR mice (mRFP and p16INK4a mRNA); format: in vivo, mouse; settings: doxorubicin 10 mg/kg vs untreated control mice
From the text: Similar results were observed when the senescent cell accumulation was induced with the chemotherapeutic agent, doxorubicin. […] Various tissues were isolated (liver, heart, lung, kidney, and spleen) and measured for abundance of mRNAs encoding mRFP and p16INK4a as markers for senescent cells (see FIGS. 5A and 5B, respectively).

IL-6 [6] = assay: IL-6 ELISA of conditioned media from X-irradiated senescent HCA2 fibroblasts; format: cell-based, human; settings: 50 nM corticosterone or 100 nM cortisol; rIL-1α given six days after irradiation, 24 hours
Method: To validate glucocorticoids as SASP regulators, they were added within 15 min after irradiation (unless otherwise indicated). For cells induced to senesce by MKK6 or RAS overexpression, glucocorticoid treatment started 16 hours after infection. Glucocorticoids were re-added in fresh media every other day. Six days after irradiation or selection, cells were given serum-free DMEM with or without glucocorticoid for 24 hours; the conditioned media were collected and frozen for ELISAs.
Conditioned media were filtered and stored at −80° C. Cell numbers were determined in every experiment. ELISAs were performed using kits and procedures from PerkinElmer (IL-6 AL223F). Data were normalized and expressed as pg/ml/cell/24 h.
To confirm the ability of corticosterone to suppress senescence-associated IL-6 secretion, fresh HCA2 fibroblast cultures were prepared, and senescence was induced by X-irradiation (10 Gy). Under these conditions, cells undergo growth arrest within 24-48 hours, but require 4-5 days before SASP components are detected in the medium (Coppe et al., 2008, PLoS Biol. 6:2853-2868; Rodier et al., 2009, Nature Cell Biol. 11:973-979; Coppe et al., 2010, PLoS ONE 5:e9188; Freund et al., 2011, EMBO J. 30:1536-1548). Varying concentrations of corticosterone were added immediately after irradiation, and the cells were maintained in the drug for 6 days. On the 6th day, the cells were incubated in serum-free medium with or without corticosterone, the conditioned medium was collected 24 h later, and the medium was assayed for IL-6 by ELISA. […] The ability of corticosterone to suppress IL-6 secretion by senescent cells was not peculiar to HCA2 cells.

NF-κB = NF-κB reporter-luciferase transactivation assay; format: cell-based, human; settings: 0.5 μM RU-486 or 2.5 ng mL^−1 IL-1α
Method: Nuclear extracts were prepared using the nuclear extract kit (Active Motif), and NF-κB DNA binding was determined using the TransAM NF-κB p65 kit (Active Motif). For transactivation assays, cells infected with the NF-κB reporter-luciferase lentivirus were lysed in buffer (Promega), and luciferase activity was normalized to cell number, as described (Freund et al., 2011, EMBO J. 30:1536-1548).

[7] = irradiated + GCV, eighteen days after injection

## Nc1nc(O)c2ncn(COC(CO)CO)c2n1 [GCV, ganciclovir]
B16 mouse melanoma cells [1]; 18 days after injection
  metastatic B16 melanoma cells, Fat (estimated % of total area of fat): 25%
  metastatic B16 melanoma cells, Liver: 7 ± 3.6 nodules
B16 mouse melanoma cells [1]; 18 days after injection, TNTC = too numerous to count
  metastatic B16 melanoma cells, Lung (luminescent nodules): TNTC
B16 mouse melanoma cells [1]; irradiated + GCV, day 18
  B16 cells as detected by luminescence: still showed relatively low levels of B16 cells
B16 mouse melanoma cells [1]; [7]
  metastases in distal organs (liver, fat): almost devoid of metastases
  primary lung tumors: large primary lung tumors were evident
B16 mouse melanoma cells [1]; irradiated + GCV, fifteen days after injection
  B16 cells as detected by luminescence: relatively low levels of B16 cells
B16 mouse melanoma cells [1]; irradiated mice, GCV 25 mg/kg daily for 7 days, 15 days after B16 injection
  primary tumors and metastases: much smaller primary tumors and many fewer metastases
B16 mouse melanoma cells [2]
  p16INK4a and mRFP expression in skin biopsies: low levels of p16INK4a and mRFP expression
  tumor diameters: smaller tumor sizes
  growth/size of subcutaneous B16 melanoma tumors: substantially reduced the size of B16 melanoma tumors; also recorded: much smaller primary tumors
Senescent cells [3]; irradiated (7 Gy) p16-3MR mice, GCV 25 mg/kg three months after irradiation, lung tissue shown
  rLUC expression levels (bioluminescence in tissues): comparable to unirradiated mice
Senescent cells [3]; irradiated p16-3MR mice treated with GCV
  p16INK4a (p16), IL-6, MMP-3 and mRFP RNA expression levels: returned p16INK4a (p16), IL-6, MMP-3 and mRFP expression levels to those found in the unirradiated control mice

## C[C@]12CC[C@@H](O)C[C@@H]1CC[C@@H]1[C@@H]2CC[C@]2(C)C(=O)CC[C@@H]12 [androsterone]
HCA2 human fibroblasts
  ATP levels: without altering ATP levels
IL-6 [4]
  IL-6 secretion (ELISA): suppressed IL-6 secretion

## C/C(=C(\CCOP(=O)(O)O)SC(=O)c1ccccc1)N(C=O)Cc1cnc(C)nc1N [benfotiamine]
HCA2 human fibroblasts
  ATP levels: without altering ATP levels
IL-6 [4]
  IL-6 secretion (ELISA): suppressed IL-6 secretion

## CCCNC(=O)NS(=O)(=O)c1ccc(Cl)cc1 [chlorpropamide]
HCA2 human fibroblasts
  ATP levels: without altering ATP levels
IL-6 [4]
  IL-6 secretion (ELISA): suppressed IL-6 secretion

## COc1cccc2c1C(=O)c1c(O)c3c(c(O)c1C2=O)C[C@@](O)(C(=O)CO)C[C@@H]3O[C@H]1C[C@H](N)[C@H](O)[C@H](C)O1 [doxorubicin]
B16 mouse melanoma cells [2]
  p16INK4a and mRFP expression in skin biopsies: increased senescence
  tumor diameters: increased tumor sizes
  growth/size of subcutaneous B16 melanoma tumors: stimulated the growth of B16 melanoma cells; also recorded: Tumor growth was increased
Senescent cells [5]
  mRFP and p16INK4a mRNA in liver, heart, lung, kidney, spleen: higher levels of mRFP and p16INK4a in all tissues

## C[C@]12CC[C@@H]3c4ccc(O)cc4CC[C@H]3[C@@H]1CC[C@@H]2O [estradiol-17-beta]
IL-6 [4]
  IL-6 secretion (ELISA): suppressed IL-6 secretion

## CC(C)(C)NC(=O)[C@H]1CC[C@H]2[C@@H]3CC[C@H]4NC(=O)C=C[C@]4(C)[C@H]3CC[C@]12C [finasteride]
HCA2 human fibroblasts
  ATP levels: without altering ATP levels
IL-6 [4]
  IL-6 secretion (ELISA): suppressed IL-6 secretion

## Cc1ccc(S(=O)(=O)NC(=O)NN2CC3CCCC3C2)cc1 (stereo not drawn) [gliclazide]
HCA2 human fibroblasts
  ATP levels: without altering ATP levels
IL-6 [4]
  IL-6 secretion (ELISA): suppressed IL-6 secretion

## Nc1cc(N2CCCCC2)nc(N)[n+]1[O-] [minoxidil]
HCA2 human fibroblasts
  ATP levels: without altering ATP levels

## C#C[C@]1(O)CC[C@H]2[C@@H]3CCC4=CC(=O)CC[C@@H]4[C@H]3CC[C@@]21CC [norgestrel-(−)-D]
IL-6 [4]
  IL-6 secretion (ELISA): suppressed IL-6 secretion

## C[C@]12C=CC(=O)C=C1CC[C@@H]1[C@@H]2C(=O)C[C@@]2(C)[C@H]1CC[C@]2(O)C(=O)CO [prednisone]
HCA2 human fibroblasts
  ATP levels: without altering ATP levels
IL-6 [4]
  IL-6 secretion (ELISA): suppressed IL-6 secretion

## Cc1ccc(S(=O)(=O)NC(=O)NN2CCCCCC2)cc1 [tolazamide]
HCA2 human fibroblasts
  ATP levels: without altering ATP levels
IL-6 [4]
  IL-6 secretion (ELISA): suppressed IL-6 secretion

## Recombinant IL-1α: recombinant IL-1α protein added to glucocorticoid-treated senescent cells
IL-6 [6]
  IL-6 secretion suppressed by corticosterone and cortisol, added recombinant IL-1α: rescued the suppression of IL-6 secretion
NF-κB
  NF-κB transactivation activity, co-treatment with either glucocorticoid: rescued NF-κB transactivation activity
